Test results published in the METLIN SMRT retention time set (Domingo-Almenara et al. 2019).

Assay: gradient 5% acetonitrile 3 min, to 50% in 2 min, to 85% in 15 min, held 3 min, 100 µL/min
Conditions: column: Zorbax Extend-C18 2.1 x 50 mm; eluents: water / acetonitrile, 0.1% formic acid
Summary of the method: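 Retention time was recorded from adduct peaks, which were picked computationally and each inspected manually. Pure standards ran in mixtures of ~100 molecules on HPLC coupled to a quadrupole time-of-flight mass spectrometer, in positive and negative ionization mode, through a Zorbax Extend-C18 column (2.1 × 50 mm, 1.8 μm) at 100 μL/min. Eluents were water and acetonitrile, each with 0.1% formic acid.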

RP-LC retention time	SMILES
1010 s	CCOC(=O)c1sc(NC(=O)c2cc(=O)c3ccccc3o2)nc1-c1ccccc1
613 s	O=C(CN1CCN(Cc2ccc(F)cc2)C1=O)N1CCN(C2CCCCC2)CC1
677 s	Nc1nc(SCC(=O)c2ccc(-c3ccccc3)cc2)n[nH]1
1050 s	Cc1ccc(N2CC(c3nc(-c4ccc5c(c4)OCO5)no3)CC2=O)cc1Cl (configuration not stated)
606 s	COc1cc(Cl)ccc1C(=O)N1CCC(OC2CCN(C)CC2)CC1
908 s	CCOC(=O)C(CC)Sc1ccc(NC(=O)c2cccs2)nn1 (configuration not stated)
1340 s	CCCOc1nc2ccccc2nc1N1CCCC(C(=O)Nc2cccc(C(=O)OCC)c2)C1 (configuration not stated)
847 s	CC(C)CC(=O)Nc1cc2c(cc1S(=O)(=O)c1ccc(F)cc1)n(C)c(=O)n2C
618 s	CCCCN1CCN(C(=O)c2ccc3c(c2)nc2n3CCN(C3CCCCC3)C2=O)CC1
711 s	COc1ccc(C(=O)N2CCN3CCS(=O)(=O)N(C4CC4)C(=O)C3C2)c(OC)c1 (configuration not stated)
698 s	COc1ncc(C(=O)Nc2ccccc2)c(C)n1
742 s	CCOC(=O)Cc1ccc(NC(=O)NC2CCN(c3ccccc3)C2=O)cc1 (configuration not stated)
691 s	CCCC(NC(=O)Cc1cccc(F)c1)C(=O)Nc1nc2ccccc2[nH]1 (configuration not stated)
862 s	Cc1ccc(C)c(NC(=O)Cn2nc(N(C)C)c3ccccc3c2=O)c1
786 s	COCCNC(=O)c1cc2c(n(-c3ccc(C(F)(F)F)cc3)c1=O)CCCC2=O

The remaining lines, values behind:

SMILES	RP-LC retention time
CCc1nn2c(CNC(=O)c3ccsc3)c(-c3ccccc3)nc2s1	854 s
COc1cccc(C(O)CN2CCN(c3ccc(F)cc3)CC2)c1 (configuration not stated)	660 s
COCCOCC(=O)N1CCC(c2noc(C3CC3)n2)C1 (configuration not stated)	619 s
Cc1c(-c2ccccc2)nc2ccccc2c1C(=O)N1CCN(c2ncccn2)CC1	636 s
CCOc1ccc(-c2noc(Cc3nc(-c4ccccc4)cs3)n2)cc1	1240 s
O=C(c1ccoc1)N1CCCC(c2ccnc(-c3ccccc3)n2)C1 (configuration not stated)	892 s
COc1ccc(-c2nnc(-c3ccc(C)c(S(=O)(=O)N4CCCCCC4)c3)o2)cc1	1150 s
COC(=O)c1ccc2c(=O)n(-c3ccc(C)c(C)c3)c(N3CCN(c4ccccn4)CC3)nc2c1	756 s
COc1cc(NC(=O)N2CCC(N3CCN(Cc4ccc(C)cc4)C(=O)C3=O)CC2)cc(OC)c1	758 s
Cc1ccccc1Cn1c2ccccc2c2cnn(CC(=O)NCc3ccco3)c(=O)c21	975 s
Cc1nn(CC(=O)NCC2CCCCC2)c(=O)c2nc(-c3ccccc3)sc12	958 s
O=C1N(CCNS(=O)(=O)c2cnc[nH]2)C(c2ccccc2)C12CCCCC2 (configuration not stated)	740 s
CC1CCN(C(=O)c2ccc(Cn3cncn3)cc2)CC1	672 s
CCCC(=O)N1CCC(C(=O)N2c3ccccc3CC2C)CC1 (configuration not stated)	794 s
CCOc1ccccc1NC(=O)C1CCN(c2cncnc2N2CCCCC2)CC1	742 s
O=c1n(Cc2nc(-c3ccc(F)c(Br)c3)no2)nc2ccc(-c3ccccc3)nn12	1010 s
CCCCN(CCCC)c1nc(-c2ccncc2)nc2ccccc12	992 s
CC(C)(C)c1ccc(O)c(NC(=O)c2cn(-c3ccc(S(=O)(=O)N4CCCCC4)cc3)cn2)c1	1100 s
O=C(Cc1ccc(F)cc1)NCC(=O)N1CCOC(c2ccccc2)C1 (configuration not stated)	646 s
Cc1nc(C)c(-c2ccc(=O)n(CCNC(=O)c3ccno3)n2)s1	585 s
COc1ccc(-c2[nH]c3ccccc3c2C(C[N+](=O)[O-])c2cccs2)cc1OC (configuration not stated)	960 s
CCn1c(=O)sc2cc(S(=O)(=O)N3CCC(C(=O)NC4CC4)CC3)ccc21	737 s
